Assay results from patent publication US11945881B2, “Neoantigens expressed in ovarian cancer and their uses” (Janssen Biotech, Inc., priority 2020, dated 2024).

What was measured:
CD4+ T cells = assay: exogenous autologous normal donor restimulation assay, TNFα/IFNγ double positive CD4+ T cells by flow cytometry; type: cell-based, human; settings: donor independent, peptide pool 10 μg/mL, healthy donors; for Fold change (CD4+) vs. DMSO: maximum CD4+ T-cell response (TNFα and IFNγ); for Frequency (TNFα + IFNγ + CD4 T cells): maximum CD4+ T-cell response
Method: (§1) The immunogenicity of neoantigens was assessed using the exogenous autologous normal donor restimulation assay. […] The lyophilized peptides were solubilized in 100% DMSO.
(§2) CD1c+ Dendritic Cells (CD1c+DC) isolated from human healthy PBMCs were thawed using media (IMDM (Gibco) supplemented with glutamine, HEPES, 5% human serum (Sigma), and 1× Pen-Strep). DC cells were resuspended in media supplemented with IL-4 (Peprotech, 20 ng/mL) and GM-CSF (Gibco, 20 ng/mL), plated in 6 well microplates, and rested overnight at 37° C. and 5% CO2 incubator. The following day, DC cells were counted and plated in a 96 well round bottom microplate at a concentration of 30,000 viable cells per well. Lyophilized neoantigen peptide pools (15-mer peptides with 8-mer overlapping peptide sequences) were solubilized in 100% DMSO with a stock concentration of 20 mg/mL Neoantigen peptides pools were added to DCs for a final concentration of 10 μg/mL and rested for 2 hours at 37° C. and 5% CO2 incubator. CEF Peptide Pool “Plus” (Cellular Technologies, Ltd.) was utilized as a positive control (each viral peptide at a final concentration of 4 ug/ml) and DMSO at the same final concentration (0.05%) as the experimental peptides was utilized as a negative control. After 2 hours, DC cells were irradiated with 50 gray of ionizing radiation. Autologous CD3+ Pan-T cells isolated from human normal PBMCs were thawed using media. Following irradiation, autologous Pan-T cells were added to the irradiated DCs at 300,000 viable cells per well. Human IL-15 (Peprotech) was added to all wells at final concentration of 10 ng/ml. Plates were incubated at 37° C. and 5% CO2 incubator for a total of 12 days. Media was refreshed every 2-3 days with IL-15 (R&D System, 10 ng/mL final concentration) and IL-2 (R&D systems, 10 IU/mL final concentration).
(§3) On Day 11, cells were re-stimulated with identical experimental peptide pools or controls, at same concentration as peptide stimulation on Day 1. Protein Inhibitor Cocktail (eBioscience) was added to every well and plate was incubated overnight for 14-16 hours at 37° C. and 5% CO2 incubator. On Day 12, cells were stained for surface and intracellular flow cytometry analysis. The cells were washed with PBS and stained with Live/Dead Fixable Aqua Dead Cell stain (Thermo-Fisher). Following the live/dead stain, cells were blocked using Biotin-Fre Fc Receptor Blocker (Accurate Chemical & Scientific Corp). Extracellular cellular flow panel ([…] per well in 50 μL) consisted of CD3 PerCP-Cy5.5 (Biolegend), CD4 BV421 (Biolegend), and CD8 APC-Cy7 (Biolegend). After extracellular staining, cells were fixed and permeabilized using Foxp3/Transcription Factor Staining Buffer Set (eBioscience) and stained for intracellular proteins (1:50 dilution) using TNFα FITC (R&D Systems) and IFNγ BV785 (Biolegend). Cells were washed and resuspended in stain buffer, analyzed, and recorded in a BD Celesta flow cytometer.
(§4) Flow cytometry analysis was conducted on FlowJo v10.6 software. Cells were gated on live, singlet, CD3+, CD4+ and CD8+ T cells. The CD8+ and CD4+ T cells were analyzed for TNFα and IFNγ expression.
(§5) The immunogenicity of neoantigens was first investigated in 9-16 healthy donors.

CD8+ T cells = assay: exogenous autologous normal donor restimulation assay, TNFα/IFNγ double positive CD8+ T cells by flow cytometry; type: cell-based, human; settings: for Fold change (CD8+) vs. DMSO: maximum CD8+ T-cell response (TNFα and IFNγ); for Fold change (CD8+) vs. DMSO / Frequency (TNFα + IFNγ + CD8 T cells): donor independent, peptide pool 10 μg/mL, healthy donors; for Frequency (TNFα + IFNγ + CD8 T cells): maximum CD8+ T-cell response; for Immunogenic (yes/no): positive if CD8+ and/or CD4+ double positive TNFα/IFNγ frequency >=3-fold over DMSO and at least 0.01%
Method: as §1, §2, §3, §4, §5

Sequence	Fold change (CD4+) vs. DMSO (CD4+ T cells) [fold]	Frequency (TNFα + IFNγ + CD4 T cells) (CD4+ T cells) [%]	Fold change (CD8+) vs. DMSO (CD8+ T cells) [fold]	Frequency (TNFα + IFNγ + CD8 T cells) (CD8+ T cells) [%]	Immunogenic (yes/no) (CD8+ T cells)
LASGVPPPGLPWGPGPHLG [AS60, neoantigen, alternative splicing of HMCN2]	4.3	0.019	265.02	1.9	Yes
LCAISVDRCAALPARAPAPPRPARRPHRGLCAVRRPLGAPRRFVAVAVP [AS159, neoantigen, alternative splicing of DRD4]	12.5	0.081	39.04	0.12	Yes
LDLAGNARPCRSQSPTSSDQTPSVPSLGSPELPDGEEGGSPDGSPQESEQVRQGQHV [AS103, neoantigen, alternative splicing of GTF2IRD1]	6.62	0.086	48.82	0.83	Yes
LEEEFISEWRRCLLCSYLQW [AS63, neoantigen, alternative splicing of IMPG2]	13.54	0.15	185.74	0.5	Yes
LLFFVAGEVLRHEEFE [FUS15, neoantigen, gene fusion NXN->GLOD4]	16.21	0.08	8.84	0.19	yes
LLFPYNQLDLHLHRPSGSRKNEIHWDKCFSSED [AS68, neoantigen, alternative splicing of PKHD1L1]	5.43	0.024	17.52	0.11	Yes
LRLRPNRRRASSAQTAPTSSLSLWSGASRRRRPAGGHMWCTAGRPSSRSGQNLTGTCTMKPLAWETFPTCWAWWGTSWATQSGSGGMPSQAATASRCCWWWTTRWFASMARSMCRTMSSPS [AS1]	16.77	0.15	29.8	0.57	Yes
LRSLAGTYGRSPSPATRRKRSWSC [FUS25, neoantigen, gene fusion CLCF1->POLD4]	16.49	0.059	2.79	0.048	Yes
LSPGGACVDIDECDRQ [AS81, neoantigen, alternative splicing of FBN3]	3.22	0.028	10.83	0.1	Yes
MAGGVLRRLLCREPDRDGDKGASREETVVPLHIGDPVVLPGIGQCYSALF [FUS1, neoantigen, gene fusion TSTD1->F11R]	5.43	0.011	2.79	0.06	yes
MHRKLQARSPSLCTGHPPQAA [AS75, neoantigen, alternative splicing of TSPAN10]	3.46	0.014	2.64	0.16	Yes
MPGHGAICSGSSRQPD [AS82, neoantigen, alternative splicing of IMPG2]	5.88	0.026	13.55	0.82	Yes
MSQESDKNGLSSRSWMNTWILPEVL [AS102, neoantigen, alternative splicing of GRHL2]	4.47	0.029	5.65	0.096	Yes
NANSRLPEACEK [AS100, neoantigen, alternative splicing of FRYL]	6.02	0.039	63.36	0.099	Yes
NIEDVATEDGRHGGCHHGPGR [AS71, neoantigen, alternative splicing of SLC6A2]	10.95	0.038	11.78	0.074	Yes
NLQLLTQGYSGIWRYP [AS118, neoantigen, alternative splicing of SAMD12]	5.25	0.034	2.42	0.038	Yes
NYGNLFSLAGSLHFTA [AS89, neoantigen, alternative splicing of ZNF727]	7.02	0.061	142.04	0.26	Yes
PGHGAICREEV [AS62, neoantigen, alternative splicing of IMPG2]	14.25	0.063	28.06	0.055	Yes
PSLSTRLTSKDPQPLQSHYWGLIGNDPFLRSKKRVN [AS4, neoantigen, alternative splicing of MUC16]	11.53	0.093	7.55	0.068	Yes
PSPSTPNHSQQAICHPGRRP [AS105, neoantigen, alternative splicing of MPRIP]	14.72	0.14	1.76	0.02	Yes
PSSLPGPTGKYQSMVFGAWLMSVNISVYTLLEHG [AS140, neoantigen, alternative splicing of MUC16]	79.1	0.14	115.04	0.22	Yes
QATPSSILCFRLACLWLLRKGLLDLTW [AS15, neoantigen, alternative splicing of IMPG2]	11.36	0.023	48.05	0.08	Yes
QHLQQEACVTSAGKQS [AS19, neoantigen, alternative splicing of PLEKHG4B]	5.69	0.06	182.29	0.7	Yes
QLNLSETQFAQYAEIV [FUS2, neoantigen, gene fusion VAX2->ATP6V1B1]	21.76	0.026	593.75	2.28	yes
